The numbers were not newly measured in patent publication US8058278B2, “Methods of enhancing mucosal hydration and mucosal clearance by treatment with sodium channel blockers and osmolytes” (Parion Sciences, Inc., priority 2006, dated 2011), which cites them from elsewhere.

In this data set the test system is water permeability of airways. To be noted: amiloride used concurrently with hypertonic saline.

As to `N=C(N)NC(=O)c1nc(Cl)c(N)nc1N` [Amiloride, amiloride], the “effect on water permeability of airways” value was “block the water permeability of airways”.
